Data from US11274332B2, “Methods of administering 3,4-diaminopyridine” (SERB SA, priority 2011, dated 2022).
Like-named read-outs stand apart in the source and are kept apart here.

Experiment: Example 18 Part 2: multiple dose PK (20 mg QID) of 3,4-DAP and 3-N-acetyl metabolite in slow and fast acetylators
Assay type: in vivo, human
Settings: for AUC(0-t) / Cmax / Tmax / Vd/F / half-life: both sexes, human, plasma, oral, 20 mg; for Cmax: read-out: Cmax; for Tmax: read-out: Tmax; for Vd/F: read-out: Vz/F; for half-life: read-out: t1/2 (converted)
Procedure: The following method was used to analyze concentrations of 3,4-diaminopyridine and N-(4-aminopyridin-3-yl)acetamide in plasma and urine samples for the experiments in Example 18. In the LC/MS/MS method, the human plasma and urine samples were extracted using acetonitrile containing 0.1% formic acid. Samples were analyzed by using HPLC with positive ion electrospray MS/MS detection. The column was an Atlantis HILIC Silica column (3 μm, 3×50 mm) at a temperature of 40° C. Mobile phase A was water containing ammonium formate (20 mM) and 0.1% formic acid. Mobile phase B was acetonitrile/isopropanol (90/10; v/v) containing 0.1% formic acid. The flow rate was 0.90 mL/minute. The gradient conditions for human plasma and urine samples were as follows:
The LC/MS/MS method was validated to quantify 3,4-DAP in human plasma in the linear calibration range of 0.500 to 500 ng/mL and from 1.00 to 1000 ng/mL for the 3-N-acetyl metabolite.
The primary objective of the study was to assess the safety and tolerability of 3,4-DAP phosphate after single and multiple doses. The secondary objectives of the study were • Part 1 only: To determine the dose-related PK profile of amifampridine and of 3-N-acetyl amifampridine after single, escalating doses of 3,4-DAP phosphate • Part 2 only: To assess the steady-state plasma PK and accumulation of amifampridine and of 3-N-acetyl amifampridine over multiple days of dosing with 3,4-DAP phosphate An exploratory objective was to examine the overall activity of the N-acetyl transferase enzymes on the metabolism of amifampridine by assessing the PK of amifampridine and 3-N-acetyl amifampridine with phenotypic acetylation activity and genotyping determination of NAT2 gene polymorphisms. Study Design and Plan
This open-label study in healthy subjects (male and female) was conducted in 2 parts. A total of 26 healthy male and female subjects, 12 in Part 1 (at least 5 of each sex), 4 in Part 2 Group 1, and 10 in Part 2 Group 2 (at least 4 of each sex) were enrolled into the study. The same subjects were not enrolled to participate in both parts. Subjects in Part 2 were dosed only after all subjects of Part 1 completed dosing and at least 24-hours of follow-up safety evaluation after the last dose were completed.
All subjects were characterized for their metabolic acetylation phenotype and NAT2 genotype in order to divide subjects into two groups of acetylators. Volunteers were genetically typed for highly variant alleles of the N-acetyl transferase 2 enzyme (NAT2) domain on chromosome 8 (according to Example 16) and were phenotyped for acetylation rates with a caffeine challenge test (according to Example 15a). Approximately equal numbers of slow and fast acetylators (as defined by a caffeine challenge test in Example 15a) were enrolled in each group. In Part 2, very slow acetylators with NAT2 activity (ratio 1, Example 15a) below 0.06 were excluded from participation in the study. In each part of the study, subjects were assessed for PK, safety, and tolerability and all doses were administered within 30 min of ingestion of a meal or a snack.
Part 2, Group 1: Four sentinel subjects were selected after determining their acetylator status. Two were fast acetylators and two were slow acetylators. All four were dosed on Day 1 with 4 oral doses of 20 mg of 34-DAP phosphate (given at 4-hour dosing intervals). On Days […] and 2, safety and tolerability data was collected. Subjects left the clinic on Day 2. The safety and tolerability data collected for these 4 sentinel subjects were reviewed. The safety and tolerability results of Days 1 and 2 for these subjects were acceptable and thus Part 2 Group 2 was commenced. Minimally acceptable safety was defined as the absence of clinical seizure activity. Subjects in Group 1 returned to the clinic for their follow-up assessments 2-4 days following their last dose.
Each subject was given a final morning dose of 20 mg 3,4-DAP phosphate on Day 4. […]

[1] = Day 1, fast acetylators, Dose 1 interval, 20 mg QID, arith. mean
[2] = Day 1, fast acetylators, Dose 2 interval, 20 mg QID, arith. mean
[3] = Day 1, fast acetylators, Dose 3 interval, 20 mg QID, arith. mean
[4] = Day 1, fast acetylators, Dose 4 interval, 20 mg QID, arith. mean
[5] = Day 1, slow acetylators, Dose 1 interval, 20 mg QID, arith. mean
[6] = Day 1, slow acetylators, Dose 2 interval, 20 mg QID, arith. mean
[7] = Day 1, slow acetylators, Dose 3 interval, 20 mg QID, arith. mean
[8] = Day 1, slow acetylators, Dose 4 interval, 20 mg QID, arith. mean
[9] = Day 3, fast acetylators, Dose 1 interval, 20 mg QID, arith. mean
[10] = Day 3, fast acetylators, Dose 2 interval, 20 mg QID, arith. mean
[11] = Day 3, fast acetylators, Dose 3 interval, 20 mg QID, arith. mean
[12] = Day 3, fast acetylators, Dose 4 interval, 20 mg QID, arith. mean
[13] = Day 3, slow acetylators, Dose 1 interval, 20 mg QID, arith. mean
[14] = Day 3, slow acetylators, Dose 2 interval, 20 mg QID, arith. mean
[15] = Day 3, slow acetylators, Dose 3 interval, 20 mg QID, arith. mean
[16] = Day 3, slow acetylators, Dose 4 interval, 20 mg QID, arith. mean
[17] = metabolite, Day 4, 20 mg single dose, fast acetylators
[18] = metabolite, Day 4, 20 mg single dose, slow acetylators

CL/F [1]: 16.2 L/h
CL/F [2]: 7.78 L/h
CL/F [3]: 8.90 L/h
CL/F [4]: 7.62 L/h
CL/F [5]: 28.8 L/h
CL/F [6]: 20.2 L/h
CL/F [7]: 13.5 L/h
CL/F [8]: 10.4 L/h
CL/F [9]: 11.5 L/h
CL/F [10]: 7.56 L/h
CL/F [11]: 7.72 L/h
CL/F [12]: 7.03 L/h
CL/F [13]: 19.0 L/h
CL/F [14]: 14.5 L/h
CL/F [15]: 12.7 L/h
CL/F [16]: 9.65 L/h
AUC(0-t) (Day 1, fast acetylators, Dose 1-4, 20 mg QID, arith. mean, read-out: AUC0-24): 5740 ng·h/mL
AUC(0-t) (Day 1, fast acetylators, Dose 1 interval, 20 mg QID, arith. mean, read-out: AUC0-4): 773 ng·h/mL
Cmax [1]: 333 ng/mL
Tmax [1]: 1.43 h
Vd/F [1]: 55.2 L
half-life [1]: 2.35 h
AUC(0-t) (Day 1, fast acetylators, Dose 2 interval, 20 mg QID, arith. mean, read-out: AUC0-4): 1160 ng·h/mL
Cmax [2]: 396 ng/mL
Tmax [2]: 1.5 h
Vd/F [2]: 32.9 L
half-life [2]: 2.93 h
AUC(0-t) (Day 1, fast acetylators, Dose 3 interval, 20 mg QID, arith. mean, read-out: AUC0-4): 1280 ng·h/mL
Cmax [3]: 426 ng/mL
Tmax [3]: 0.964 h
Vd/F [3]: 40.3 L
half-life [3]: 3.28 h
AUC(0-t) (Day 1, fast acetylators, Dose 4 interval, 20 mg QID, arith. mean, read-out: AUC0-4): 1340 ng·h/mL
Cmax [4]: 433 ng/mL
Tmax [4]: 1.14 h
Vd/F [4]: 40 L
half-life [4]: 3.93 h
AUC(0-t) (Day 1, slow acetylators, Dose 1-4, 20 mg QID, arith. mean, read-out: AUC0-24): 3580 ng·h/mL
AUC(0-t) (Day 1, slow acetylators, Dose 1 interval, 20 mg QID, arith. mean, read-out: AUC0-4): 383 ng·h/mL
Cmax [5]: 150 ng/mL
Tmax [5]: 1.68 h
Vd/F [5]: 120 L
half-life [5]: 2.95 h
AUC(0-t) (Day 1, slow acetylators, Dose 2 interval, 20 mg QID, arith. mean, read-out: AUC0-4): 627 ng·h/mL
Cmax [6]: 204 ng/mL
Tmax [6]: 1.46 h
Vd/F [6]: 101 L
half-life [6]: 3.5 h
AUC(0-t) (Day 1, slow acetylators, Dose 3 interval, 20 mg QID, arith. mean, read-out: AUC0-4): 759 ng·h/mL
Cmax [7]: 240 ng/mL
Tmax [7]: 1.25 h
Vd/F [7]: 71.5 L
half-life [7]: 4 h
AUC(0-t) (Day 1, slow acetylators, Dose 4 interval, 20 mg QID, arith. mean, read-out: AUC0-4): 769 ng·h/mL
Cmax [8]: 235 ng/mL
Tmax [8]: 1.71 h
Vd/F [8]: 70.6 L
half-life [8]: 4.74 h
AUC(0-t) (Day 3, fast acetylators, Dose 1-4, 20 mg QID, arith. mean, read-out: AUC0-24): 6570 ng·h/mL
AUC(0-t) (Day 3, fast acetylators, Dose 1 interval, 20 mg QID, arith. mean, read-out: AUC0-4): 1020 ng·h/mL
Cmax [9]: 374 ng/mL
Tmax [9]: 1.35 h
Vd/F [9]: 44.5 L
half-life [9]: 2.77 h
AUC(0-t) (Day 3, fast acetylators, Dose 2 interval, 20 mg QID, arith. mean, read-out: AUC0-4): 1320 ng·h/mL
Cmax [10]: 448 ng/mL
Tmax [10]: 1.3 h
Vd/F [10]: 36.6 L
half-life [10]: 3.6 h
AUC(0-t) (Day 3, fast acetylators, Dose 3 interval, 20 mg QID, arith. mean, read-out: AUC0-4): 1410 ng·h/mL
Cmax [11]: 490 ng/mL
Tmax [11]: 0.9 h
Vd/F [11]: 39.2 L
half-life [11]: 3.74 h
AUC(0-t) (Day 3, fast acetylators, Dose 4 interval, 20 mg QID, arith. mean, read-out: AUC0-4): 1460 ng·h/mL
Cmax [12]: 509 ng/mL
Tmax [12]: 1.1 h
Vd/F [12]: 42 L
half-life [12]: 4.17 h
AUC(0-t) (Day 3, slow acetylators, Dose 1-4, 20 mg QID, arith. mean, read-out: AUC0-24): 3650 ng·h/mL
AUC(0-t) (Day 3, slow acetylators, Dose 1 interval, 20 mg QID, arith. mean, read-out: AUC0-4): 523 ng·h/mL
Cmax [13]: 206 ng/mL
Tmax [13]: 1.75 h
Vd/F [13]: 95 L
half-life [13]: 3.47 h
AUC(0-t) (Day 3, slow acetylators, Dose 2 interval, 20 mg QID, arith. mean, read-out: AUC0-4): 684 ng·h/mL
Cmax [14]: 222 ng/mL
Tmax [14]: 1.5 h
Vd/F [14]: 81.5 L
half-life [14]: 3.89 h
AUC(0-t) (Day 3, slow acetylators, Dose 3 interval, 20 mg QID, arith. mean, read-out: AUC0-4): 802 ng·h/mL
Cmax [15]: 249 ng/mL
Tmax [15]: 1.2 h
Vd/F [15]: 68.1 L
half-life [15]: 3.75 h
AUC(0-t) (Day 3, slow acetylators, Dose 4 interval, 20 mg QID, arith. mean, read-out: AUC0-4): 814 ng·h/mL
Cmax [16]: 258 ng/mL
Tmax [16]: 0.9 h
Vd/F [16]: 78.3 L
half-life [16]: 5.7 h
AUC(0-t) (metabolite, Day 4, 20 mg single dose, fast acetylators, read-out: Mean AUC0-4): 1030 ng·h/mL
AUC(0-t) (metabolite, Day 4, 20 mg single dose, fast acetylators, read-out: Mean AUC0-24): 2120 ng·h/mL
AUC(0-t) (metabolite, Day 4, 20 mg single dose, slow acetylators, read-out: Mean AUC0-4): 513 ng·h/mL
AUC(0-t) (metabolite, Day 4, 20 mg single dose, slow acetylators, read-out: Mean AUC0-24): 1230 ng·h/mL
Mean CL/F [17]: 69.4 L/h
Mean t1/2 [17]: 1.40 h
Mean CL/F [18]: 116 L/h
Mean t1/2 [18]: 1.55 h
SMILES: CC(=O)Nc1cnccc1N [3-N-acetyl amifampridine, N-(4-aminopyridin-3-yl)acetamide]
